How the values were obtained:
[1] = cited from earlier work
[2] = system: effector organs of the vagus nerve; assay: Stimulation of the effector organs of the vagus nerve in patients tested; type: in vivo, human
Text: Certain ingredients of the compound (a choline compound, an acetylcholinesterase inhibitor and Acetyl-L-Carnitine) have been used to reduce inflammation, to assist those suffering from metabolic insufficiencies, and for healthy memory and mental function, and numerous studies have been published involving cognition, dementia, age-related memory loss and neurodegeneration with these ingredients. (U.S. Pat. No. 6,537,969 B1, Patent No. US 2008/0213401). […] It is not intuitive or obvious that any two of these ingredients can also be effective and that any two of these ingredients can restore parasympathetic nerve function even when the postganglionic nerve is not viable for any reason, by directly stimulating the effector organs themselves.
Driscoll found the use of nicotine can diagnose pre-ganglionic vagus nerve dysfunction. […] Nicotine (transdermal, suppository, or) can be used to discern receptor damage from either direct nerve damage or neurotransmitter dysfunction. These forms of nicotine can be used to verify that the organ is capable of responding, to test the cholinergic receptors or postganglionic nerve, or can be used for short periods of time to assist with said organ function (ileocecal valve, gastroparesis/constipation, gallbladder, pancreas, gastric acid secretion). No part of the vagus nerve is required for the use of nicotine to be effective because the invention can effectively stimulate the receptor on the organ itself. […]

[3] = person, Ehlers-Danlos syndrome, given for a hospital-induced infection
[4] = system: patients with autonomic dysfunction and/or connective tissue disorders; assay: Patient case studies: other signs (tachycardia, dry eyes, light sensitivity, Roth spot, gallbladder function, pseudotumor cerebri symptoms); type: in vivo, human; conditions: person, POTS, Idiopathic Intracranial Hypertension; acetazolamide 250 mg three times per day
Description: They also suffered with poor digestion, dry eyes, and fatigue.
Most every day (usually in the evenings) they experienced pseudo seizures lasting from 30 minutes to three hours. These began with their eyes rolling up and their eyelids fluttering, then they progressed to full body twitching and spasming. These pseudo seizures continued for over three years, but physicians were unable to locate the source of their symptoms. A Roth spot in their ocular fundus in addition to numerous symptoms of nutrient malabsorption were noted. They suffered with light sensitivity secondary to large pupils (5.5 mm), weight loss, extreme fatigue, constipation, tachycardia, and dry eyes.
Gallbladder removal surgery was recommended.

[5] = system: patients with autonomic dysfunction and/or connective tissue disorders; conditions: person, POTS, Idiopathic Intracranial Hypertension; acetazolamide 250 mg three times per day
Text: Acetazolamide was prescribed for high intracranial pressure.

For `CN1CCCC1c1cccnc1` (centres unmarked) [Nicotine], the lethal dosage ([1]; human, in vivo) is listed as 60 mg and the “side effects on chronic use” value ([1]; treatment of parasympathetic and vagus nerve dysfunction on a chronic basis) is listed as “dermatographia, hives, itching, and welting”.
With `Cc1ncc(C[n+]2csc(CCO)c2C)c(N)n1` [Thiamin] the “autonomic dysfunction or disorders of the effector organs of the parasympathetic nervous system” value ([2]; supplementation alone) was “will not eliminate”.
For `CN[C@H](CC(C)C)C(=O)N[C@H]1C(=O)N[C@@H](CC(N)=O)C(=O)N[C@H]2C(=O)N[C@H]3C(=O)N[C@H](C(=O)N[C@H](C(=O)O)c4cc(O)cc(O)c4-c4cc3ccc4O)[C@H](O)c3ccc(c(Cl)c3)Oc3cc2cc(c3O[C@@H]2O[C@H](CO)[C@@H](O)[C@H](O)[C@H]2O[C@H]2C[C@](C)(N)[C@H](O)[C@H](C)O2)Oc2ccc(cc2Cl)[C@H]1O` [Vancomycin], the “adverse reaction to antibiotic” value [3] was “developed hives and dramatic flushing”.
For `CC(=O)Nc1nnc(S(N)(=O)=O)s1` [acetazolamide], the pseudotumor cerebri symptoms [4] was “relieved” and the visual snow [5] was “did not improve”.
With `C[N+](C)(C)CC(O)CC(=O)[O-]` (centres unmarked) [carnitine] the “organ function when added to the compound” value ([2]; case studies, patients with organ malfunction secondary to poor vagus nerve function) was “better organ function”.
With `CN1CCCC1c1cccnc1` (centres unmarked) [oral nicotine, nicotine] the “stimulation of the effector organs of the vagus nerve / restoration of vagus nerve function” value ([2]; patients tested, ingredient used alone, or nicotine by the stated route (transdermal 1-21 mg)) was “not effective”.

— patent US20220370382A1, “METHODS AND COMPOSITIONS FOR CORRECTION OF AUTONOMIC DYSFUNCTIONS” (priority 2021, published 2022)
